{
  "source": "patent US20130315834A1",
  "about": "“NANOPROBE COMPRISING GOLD COLLOID NANOPARTICLES FOR MULTIMODALITY OPTICAL IMAGING OF CANCER AND TARGETED DRUG DELIVERY FOR CANCER” (priority 2010, published 2013)",
  "key": {"A-431 cells": {"test_system": "A-431 cells", "assay": "In-vitro uptake of hypericin, confocal fluorescence microscopy", "format": "cell-based, human", "conditions": "about 3 hours incubation, FIG. 9b", "method": "Targeting and localization of the nanoprobes to cellular receptors is assessed using dark field contrast imaging and confocal fluorescence microscopy. Briefly, A-431 cells are incubated with the nanoprobes for about 3 hours at about 37° C. The cells are then washed in PBS, fixed in 2% paraformaldehyde for about 10 mins and mounted in Vectashield fluorescent mounting medium (Vector Laboratories, Burlingame, Calif.). The cells are visualized via dark field illumination system (CytoViva, Auburn, Ala.) attached to a Nikon Eclipse 80i microscope. The in-vitro localization of the nanoprobes is also assessed by exciting the cells using a 488 nm argon laser. Fluorescence emission in the wavelength range of 590-630 nm is split by a dichroic filter and detected through a band pass filter (BP-610 nm; Omega Optical, Brattleboro, Vt.). […]\nConfocal fluorescence microscopy is used to study CNE2 cells treated with 2 hypericin and A-431 cells treated with Hypericin-Au-EGFR theragnostic probe for about 6 hours under physiological conditions. […]\nUsing confocal laser scanning microscope, the in-vitro uptake of hypericin-GNP labeled with anti-EGFR after about 3 hours incubation is also assessed. […] The intensity of hypericin fluorescence following incubation of hypericin alone is greater compared to incubating the cells with bioconjugated hypericin GNP conjugate (FIG. 9b). […]"}, "A-431 cell lines": {"test_system": "A-431 cell lines", "assay": "PDT in cellular model, white light, apoptosis/necrosis staining (Example 7)", "format": "cell-based, human", "conditions": "about 12 hours incubation, broadband white light; hypericin 2-10 μM", "method": "After establishing the internalization and delivery capabilities of Hypericin-Au-EGFR probe, the therapeutic potential of the probe by conducting a PDT experiment in a cellular model is examined. Hypericin-Au-EGFR probe and various amounts of hypericin are incubated with A-431 cell lines for about 12 hours and PDT is conducted using a broadband excitation using white light. Post PDT images are recorded using a confocal fluorescence microscopy with differential staining for apoptosis in green (as indicated by the white encircled area) and necrosis in red (as shown by the lighter shade indicated by the white arrow) to assess the PDT effect."}, "CNE2 cells": {"test_system": "CNE2 cells", "assay": "In-vitro uptake of hypericin, confocal fluorescence microscopy", "format": "cell-based", "conditions": "2 hypericin, about 6 hours, physiological conditions", "method": "Confocal fluorescence microscopy is used to study CNE2 cells treated with 2 hypericin and A-431 cells treated with Hypericin-Au-EGFR theragnostic probe for about 6 hours under physiological conditions. […] This will be ideal for a probe for diagnosis and therapy."}},
  "data": [
    {"smiles": "Cc1cc(O)c2c(=O)c3c(O)cc(O)c4c5c(O)cc(O)c6c(=O)c7c(O)cc(C)c8c1c2c(c34)c(c78)c65", "note": "[hypericin]", "values": [
      {"measurement": "intensity of hypericin fluorescence, hypericin alone compared to bioconjugated hypericin GNP", "setting": "A-431 cells", "value": "greater"},
      {"measurement": "mode of cell death after PDT", "setting": "A-431 cell lines", "value": "cell death via necrosis"},
      {"measurement": "hypericin fluorescence in cells", "setting": "CNE2 cells", "value": "hypericin fluorescence from within the cell"}
    ]}
  ]
}
